{"source": "patent US4278687A", "about": "“Inhibition of biosynthesis of triglycerides by certain N-β-phenethyl-N-thienylalkylamines” (Shell Oil Company, priority 1980, dated 1981)", "system": "enzyme from pig adipose tissue (synthesis of triglycerides)", "experiment": "Inhibition of triglyceride synthesis by enzyme preparation from pig adipose tissue (14C-glycerol-3-phosphate incorporation)", "assay_type": "biochemical", "details": "test compound 1000 micrograms per milliliter, 5% DMSO, 8 minutes at 37° C; compared to controls without test compound; average of two animals", "description": "An enzyme was prepared by homogenizing one gram of slices from pig adipose tissue, each slice being approximately 0.3 mm thick, in one-milliliter portions of a liquid medium (Liquid A). The homogenate then was centrifuged (10.000 g×15 minutes), and the supernatant phase (the enzyme) was poured through cheesecloth to remove fat that had risen to the top of the centrifuge tubes.\nLiquid A had the following composition (in water):\n0.15 M potassium chloride, 1 mM ethylenediaminetetracetic acid, […] Hepes (N-2-hydroxyethylpiperazine-N'-2-ethanesulfonic acid), 1 mM DTT (dithiothreitol), pH=7.0.\nA solution of the test compound (Liquid B) was prepared: 10 milligrams of test compound plus 0.5 milliliter dimethylsulfoxide (DMSO) plus 1.83 milliliters of glass-distilled water.\nA premix (Liquid C) was freshly prepared before each test, from the following components:\n0.163 milliliter of Liquid B (containing the test compound, or for comparison omitting the test compound) was mixed with 0.1 milliliter of Liquid C, 0.05 milliliter of a solution of L-[U-^14 C] glycerol-3-phosphate (containing 5 microcuries of ^14 C per milliliter), 0.01 milliliter of 0.8 M potassium phosphate (pH=7.4), 0.07 milliliter of 0.2 M glycerol-3-phosphate (pH=7.4) and 0.047 milliliter of water. 0.25 milliliter of enzyme then was added. The final concentrations of DMSO and test compound were 5% and 1000 micrograms per milliliter, respectively. The mixture was incubated for 8 minutes at 37° C. A blank control without enzyme was incubated under the same conditions. Then, 3 milliliters of a 1:2 (v/v) mixture of chloroform and methanol was added and thoroughly mixed to terminate the reaction. After 10 minutes, 2 milliliters of chloroform and 1 milliliter of 0.1 N hydrochloric acid were added to the stirred mixture. The mixture was then centrifuged (275 g) for 5 minutes at room temperature. The top layer of the sample was siphoned off. Two milliliters of 0.1 N hydrochloric acid in 50% methanol/water was added, the mixture was centrifuged (275 g) and the top layer was carefully siphoned off. The resulting liquid (the chloroform phase) was transferred to a liquid scintillation vial and air dried. Ten milliliters of a 2:1 (v/v) mixture of toluene and Triton X-100 containing 0.27% New England Nuclear Omnifluor was added, and the radioactivity was determined in a liquid scintillation counter.\nThree replicates (samples of enzyme) were conducted per experiment (per animal). The results were reported as the average of the values obtained from the adipose tissue from two experiments (i.e., two different animals).\nThe percent inhibition by the test compound compared to the controls (no test compound) was determined.", "data": [{"smiles": "Cl.OC(CNCC=C(c1ccsc1)c1ccsc1)c1cccc(C(F)(F)F)c1", "note": "(stereo not drawn) [Compound 2, alpha-((3,3-di-3-thienyl-2-propenylamino)methyl)-3-(trifluoromethyl)benzenemethanol, hydrochloride]", "values": [{"measurement": "Percent Inhibition", "result": 101}]}, {"smiles": "CC(NCCC(c1ccccc1)c1ccsc1)C(O)c1ccccc1.Cl", "note": "(stereo not drawn) [Compound 1, alpha-(1-(3-phenyl-3-(3-thienyl)propylamino)ethyl)-benzenemethanol, hydrochloride]", "values": [{"measurement": "Percent Inhibition", "result": 94}]}, {"smiles": "CC(NCC=C(c1ccsc1)c1ccsc1)C(O)c1ccccc1.Cl", "note": "(stereo not drawn) [Compound 3, alpha-(1-(3,3-di-3-thienyl-2-propenylamino)ethyl)-benzenemethanol, hydrochloride]", "values": [{"measurement": "Percent Inhibition", "result": 97}]}, {"smiles": "CC(C)c1ccc(C(=CCNC(C)C(O)c2ccccc2)c2ccsc2)cc1.Cl", "note": "(stereo not drawn) [Compound 5, alpha-(1-(3-(4-(1-methylethyl)-phenyl)-3-(3-thienyl)-2-propenylamino)ethyl)benzenemethanol, hydrochloride]", "values": [{"measurement": "Percent Inhibition", "result": 96}]}, {"smiles": "Cl.OC(CNCCC(O)(c1ccccc1)c1ccsc1)c1ccc(Cl)cc1", "note": "(stereo not drawn) [Compound 4, alpha-(2-(2-(4-chlorophenyl)-2-hydroxyethylamino)-ethyl)-alpha-phenyl-3-thiophenemethanol, hydrochloride]", "values": [{"measurement": "Percent Inhibition", "result": 94}]}]}
